Eleven molecules from patent US20250186541A1, “DLL3 TARGETING PEPTIDES AND CONSTRUCTS THEREOF” (MARIANA ONCOLOGY INC., priority 2023, published 2025) can be followed below.

Structures are written as SMILES. Numbered stars: 1 amine (or outer) side, 2 acyl side, 3 side chain; on linkers, the order of the positions; unused ones are H or OH. Bridge positions count the residues as written; N and C are the ends. Square brackets hold non-standard residues; d marks the D form. Peptide text beside a SMILES is read from it. * marks the point of attachment. ξ: configuration not given here. X1 = C[C@@]1(C(=O)C[C@@H](Cc2ccccc2)C(=O)[*:2])CCCN1[*:1]; DOTA = O=C(O)CN1CCN(CC(=O)O)CCN(CC(=O)*)CCN(CC(=O)O)CC1; Phe(2-Cl) = N[C@@H](Cc1ccccc1Cl)C(=O)O; 1Nal = N[C@@H](Cc1cccc2ccccc12)C(=O)O; 2Nal = N[C@@H](Cc1ccc2ccccc2c1)C(=O)O; Phe(2-F) = N[C@@H](Cc1ccccc1F)C(=O)O; Phe(2-Me) = Cc1ccccc1C[C@H](N)C(=O)O; 3Pal = N[C@@H](Cc1cccnc1)C(=O)O; Chg = N[C@H](C(=O)O)C1CCCCC1; Pen = CC(C)(S)[C@H](N)C(=O)O; αMeP = C[C@@]1(C(=O)O)CCCN1; CH2 = C([*:1])[*:2]; ξC = NC(CS)C(=O)O

This assay addresses T1, human DLL3 (Homo sapiens, UniProt Q9NYJ7).
T1 construct: biotin (biotinylated)
T1 sequence (Q9NYJ7 27-618): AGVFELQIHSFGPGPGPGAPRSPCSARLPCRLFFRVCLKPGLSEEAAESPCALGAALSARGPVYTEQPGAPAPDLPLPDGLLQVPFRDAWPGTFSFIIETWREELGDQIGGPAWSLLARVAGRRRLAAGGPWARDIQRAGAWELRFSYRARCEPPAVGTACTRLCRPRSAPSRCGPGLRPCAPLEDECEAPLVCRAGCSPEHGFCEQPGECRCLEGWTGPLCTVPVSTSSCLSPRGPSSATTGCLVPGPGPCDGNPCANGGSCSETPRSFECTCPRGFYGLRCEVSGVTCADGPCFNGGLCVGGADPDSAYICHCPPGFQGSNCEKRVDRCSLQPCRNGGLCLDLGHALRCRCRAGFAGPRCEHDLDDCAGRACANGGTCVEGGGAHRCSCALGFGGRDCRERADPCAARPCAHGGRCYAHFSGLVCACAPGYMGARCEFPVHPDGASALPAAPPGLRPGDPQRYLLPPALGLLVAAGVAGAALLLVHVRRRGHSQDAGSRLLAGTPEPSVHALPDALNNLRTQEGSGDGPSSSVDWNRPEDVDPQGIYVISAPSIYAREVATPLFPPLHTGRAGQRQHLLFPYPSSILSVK
Briefly: Affinity determination by Surface Plasmon Resonance (SPR), Biacore, 1:1 binding model. The note with it: biotinylated human DLL3 on streptavidin chip, 25° C.; NB = nonbinding. Put shortly: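 SPR with biotinylated human DLL3 captured on a streptavidin chip, with a reference surface subtracted. Samples were injected at several concentrations at 100 μL/min in phosphate buffer with 137 mM NaCl, 2.7 mM KCl, 0.05% P20 and 2% DMSO. Kinetic and affinity constants came from a 1:1 binding fit.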
Background: In SPR one partner is held on a chip, and binding of the other changes the refractive index at the surface.
As to `CC(=O)N[C@H](C(=O)N[C@@H](CO)C(=O)N[C@@H](CC(=O)O)C(=O)N[C@H]1CSSC[C@@H](C(=O)N2CCC[C@@H]2C(=O)N[C@@H](Cc2ccccc2)C(=O)N[C@@H](CC(=O)O)C(=O)N[C@H](CCCCNC(=O)CN2CCN(CC(=O)O)CCN(CC(=O)O)CCN(CC(=O)O)CC2)C(N)=O)NC(=O)[C@H](CC(N)=O)NC(=O)[C@H](Cc2c[nH]c3ccccc23)NC(=O)[C@H](CCC(N)=O)NC(=O)[C@H](CC(C)C)NC(=O)[C@H](Cc2cccc3ccccc23)NC1=O)C1CCCCC1` [compound 116, Ac-(Chg)-S-D-C(3)-(1Nal)-L-Q-W-N-C(3)-(D-Pro)-F-D-D-Lys(DOTA)-CONH2] (Ac-[Chg]SDC[1Nal]LQWNC[dP]FD[dK](DOTA)-NH2; disulfide 4-10), the Kd is above 30 nM. In turn, `CC(=O)N[C@H](C(=O)N[C@@H](CO)C(=O)N[C@@H](CC(=O)O)C(=O)N[C@H]1CSSC[C@@H](C(=O)N2CCC[C@@]2(C)C(=O)N[C@@H](Cc2ccccc2F)C(=O)N[C@@H](CC(=O)O)C(=O)N[C@H](CCCCNC(=O)CN2CCN(CC(=O)O)CCN(CC(=O)O)CCN(CC(=O)O)CC2)C(N)=O)NC(=O)[C@H](CC(N)=O)NC(=O)[C@H](Cc2c[nH]c3ccccc23)NC(=O)[C@H](CCC(N)=O)NC(=O)[C@H](CC(C)C)NC(=O)[C@H](Cc2cccc3ccccc23)NC1=O)C1CCCCC1` [compound 117, Ac-(Chg)-S-D-C(3)-(1Nal)-L-Q-W-N-C(3)-(aMe-P)-(2F-Phe)-D-D-Lys(DOTA)-CONH2] (Ac-[Chg]SDC[1Nal]LQWNC[αMeP][Phe(2-F)]D[dK](DOTA)-NH2; disulfide 4-10) yielded a dissociation constant Kd of 0.66 nM. With `CC(=O)N[C@H](C(=O)N[C@@H](CO)C(=O)N[C@@H](CC(=O)O)C(=O)N[C@H]1CSSC[C@@H](C(=O)N2CCC[C@@]2(C)C(=O)N[C@@H](Cc2ccccc2Cl)C(=O)N[C@@H](CC(=O)O)C(=O)N[C@H](CCCCNC(=O)CN2CCN(CC(=O)O)CCN(CC(=O)O)CCN(CC(=O)O)CC2)C(N)=O)NC(=O)[C@H](CC(N)=O)NC(=O)[C@H](Cc2c[nH]c3ccccc23)NC(=O)[C@H](CCC(N)=O)NC(=O)[C@H](CC(C)C)NC(=O)[C@H](Cc2cccc3ccccc23)NC1=O)C1CCCCC1` [compound 118, Ac-(Chg)-S-D-C(3)-(1Nal)-L-Q-W-N-C(3)-(aMe-P)-(2Cl-Phe)-D-D-Lys(DOTA)-CONH2] (Ac-[Chg]SDC[1Nal]LQWNC[αMeP][Phe(2-Cl)]D[dK](DOTA)-NH2; disulfide 4-10) the figure was 0.74 nM; with `CC(=O)N[C@H](C(=O)N[C@@H](CO)C(=O)N[C@@H](CC(=O)O)C(=O)N[C@H]1CSSC[C@@H](C(=O)N2CCC[C@@]2(C)C(=O)N[C@@H](Cc2ccccc2C)C(=O)N[C@@H](CC(=O)O)C(=O)N[C@H](CCCCNC(=O)CN2CCN(CC(=O)O)CCN(CC(=O)O)CCN(CC(=O)O)CC2)C(N)=O)NC(=O)[C@H](CC(N)=O)NC(=O)[C@H](Cc2c[nH]c3ccccc23)NC(=O)[C@H](CCC(N)=O)NC(=O)[C@H](CC(C)C)NC(=O)[C@H](Cc2cccc3ccccc23)NC1=O)C1CCCCC1` [compound 119, Ac-(Chg)-S-D-C(3)-(1Nal)-L-Q-W-N-C(3)-(aMe-P)-(2Me-Phe)-D-D-Lys(DOTA)-CONH2] (Ac-[Chg]SDC[1Nal]LQWNC[αMeP][Phe(2-Me)]D[dK](DOTA)-NH2; disulfide 4-10), 0.65 nM.

The molecule `CC(=O)N[C@H](C(=O)N[C@@H](CO)C(=O)N[C@@H](CC(=O)O)C(=O)N[C@H]1CSSC(C)(C)[C@@H](C(=O)N2CCC[C@@]2(C)C(=O)N[C@@H](Cc2ccccc2)C(=O)N[C@@H](CC(=O)O)C(=O)N[C@H](CCCCNC(=O)CN2CCN(CC(=O)O)CCN(CC(=O)O)CCN(CC(=O)O)CC2)C(N)=O)NC(=O)[C@H](CC(N)=O)NC(=O)[C@H](Cc2c[nH]c3ccccc23)NC(=O)[C@H](CCC(N)=O)NC(=O)[C@H](CC(C)C)NC(=O)[C@H](Cc2cccc3ccccc23)NC1=O)C1CCCCC1` [compound 120, Ac-(Chg)-S-D-C(3)-(1Nal)-L-Q-W-N-Pen(3)-(aMe-P)-F-D-D-Lys(DOTA)-CONH2] (Ac-[Chg]SDC[1Nal]LQWN[Pen][αMeP]FD[dK](DOTA)-NH2; disulfide 4-10) displayed a Kd above 30 nM. Molecule `CC(=O)N[C@H](C(=O)N[C@@H](CO)C(=O)N[C@@H](CC(=O)O)C(=O)NC1CSCSC[C@@H](C(=O)N2CCC[C@@]2(C)C(=O)N[C@@H](Cc2ccccc2)C(=O)N[C@@H](CC(=O)O)C(=O)N[C@H](CCCCNC(=O)CN2CCN(CC(=O)O)CCN(CC(=O)O)CCN(CC(=O)O)CC2)C(N)=O)NC(=O)[C@H](CC(N)=O)NC(=O)[C@H](Cc2c[nH]c3ccccc23)NC(=O)[C@H](CCC(N)=O)NC(=O)[C@H](CC(C)C)NC(=O)[C@H](Cc2cccc3ccccc23)NC1=O)C1CCCCC1` (stereo partly drawn) [compound 121, Ac-(Chg)-S-D-[D-Cys(1)]-(1Nal)-L-Q-W-N-C(1)-(aMe-P)-F-D-D-Lys(DOTA)-CONH2] (Ac-[Chg]SD[ξC][1Nal]LQWNC[αMeP]FD[dK](DOTA)-NH2; linker 4-10 via CH2) had a Kd above 30 nM. With `CC(=O)N[C@H](C(=O)N[C@@H](CO)C(=O)N[C@@H](CC(=O)O)C(=O)N[C@H]1CSCSC[C@H](C(=O)N2CCC[C@@]2(C)C(=O)N[C@@H](Cc2ccccc2)C(=O)N[C@@H](CC(=O)O)C(=O)N[C@H](CCCCNC(=O)CN2CCN(CC(=O)O)CCN(CC(=O)O)CCN(CC(=O)O)CC2)C(N)=O)NC(=O)[C@H](CC(N)=O)NC(=O)[C@H](Cc2c[nH]c3ccccc23)NC(=O)[C@H](CCC(N)=O)NC(=O)[C@H](CC(C)C)NC(=O)[C@H](Cc2cccc3ccccc23)NC1=O)C1CCCCC1` [compound 122, Ac-(Chg)-S-D-C(1)-(1Nal)-L-Q-W-N-[D-Cys(1)]-(aMe-P)-F-D-D-Lys(DOTA)-CONH2] (Ac-[Chg]SDC[1Nal]LQWN[dC][αMeP]FD[dK](DOTA)-NH2; linker 4-10 via CH2) the figure was above 30 nM; with `CC(=O)N[C@H](C(=O)N[C@@H](CO)C(=O)N[C@@H](CC(=O)O)C(=O)N[C@H]1CSSC[C@@H](C(=O)N2CCC[C@@]2(C)C(=O)N[C@@H](Cc2ccccc2)C(=O)N[C@@H](CC(=O)O)C(=O)N[C@H](CCCCNC(=O)CN2CCN(CC(=O)O)CCN(CC(=O)O)CCN(CC(=O)O)CC2)C(N)=O)NC(=O)[C@H](CC(N)=O)NC(=O)[C@H](Cc2c[nH]c3ccccc23)NC(=O)[C@H](CCC(N)=O)NC(=O)[C@H](C2CCCCC2)NC(=O)[C@H](Cc2cccc3ccccc23)NC1=O)C1CCCCC1` [compound 123, Ac-(Chg)-S-D-C(3)-(1Nal)-Chg-Q-W-N-C(3)-(aMe-P)-F-D-D-Lys(DOTA)-CONH2] (Ac-[Chg]SDC[1Nal][Chg]QWNC[αMeP]FD[dK](DOTA)-NH2; disulfide 4-10), 0.34 nM.

In turn, `CC(=O)N[C@H](C(=O)N[C@@H](CO)C(=O)N[C@@H](CC(=O)O)C(=O)N[C@H]1CSSC[C@@H](C(=O)N2CCC[C@@]2(C)C(=O)N[C@@H](Cc2ccccc2)C(=O)N[C@@H](CC(=O)O)C(=O)N[C@H](CCCCNC(=O)CN2CCN(CC(=O)O)CCN(CC(=O)O)CCN(CC(=O)O)CC2)C(N)=O)NC(=O)[C@H](CC(N)=O)NC(=O)[C@H](Cc2ccc3ccccc3c2)NC(=O)[C@H](CCC(N)=O)NC(=O)[C@H](CC(C)C)NC(=O)[C@H](Cc2cccc3ccccc23)NC1=O)C1CCCCC1` [compound 124, Ac-(Chg)-S-D-C(3)-(1Nal)-L-Q-(2Nal)-N-C(3)-(aMe-P)-F-D-D-Lys(DOTA)-CONH2] (Ac-[Chg]SDC[1Nal]LQ[2Nal]NC[αMeP]FD[dK](DOTA)-NH2; disulfide 4-10) showed a Kd of 0.15 nM. `CC(=O)N[C@H](C)C(=O)N[C@H](CO)C(=O)N[C@@H](CC(=O)O)C(=O)N[C@H]1CSSC[C@@H](C(=O)N2CCC[C@@]2(C)C(=O)C[C@@H](Cc2ccccc2)C(=O)N[C@@H](CC(=O)O)C(=O)N[C@H](CCCCNC(=O)CN2CCN(CC(=O)O)CCN(CC(=O)O)CCN(CC(=O)O)CC2)C(N)=O)NC(=O)[C@H](CC(N)=O)NC(=O)[C@H](Cc2ccc3ccccc3c2)NC(=O)[C@H](CCC(N)=O)NC(=O)[C@H](C2CCCCC2)NC(=O)[C@H](Cc2cccc3ccccc23)NC1=O` [compound 126, Ac-(D-Ala)-(D-Ser)-D-C(3)-(1Nal)-(Chg)-Q-(2Nal)-N-C(3)-(aMe-P)-F-D-D-Lys(DOTA)-CONH2] (Ac-[dA][dS]DC[1Nal][Chg]Q[2Nal]NC[X1]D[dK](DOTA)-NH2; disulfide 4-10) had a Kd of 0.26 nM.

Turning to `CC(=O)N[C@H](C)C(=O)N[C@H](CO)C(=O)N[C@@H](CC(=O)O)C(=O)N[C@H]1CSSC[C@@H](C(=O)N2CCC[C@@]2(C)C(=O)N[C@@H](Cc2ccccc2)C(=O)N[C@@H](CC(=O)O)C(=O)N[C@H](CCCCNC(=O)CN2CCN(CC(=O)O)CCN(CC(=O)O)CCN(CC(=O)O)CC2)C(N)=O)NC(=O)[C@H](CC(N)=O)NC(=O)[C@H](Cc2ccc3ccccc3c2)NC(=O)[C@H](Cc2cccnc2)NC(=O)[C@H](C2CCCCC2)NC(=O)[C@H](Cc2cccc3ccccc23)NC1=O` [compound 127, Ac-(D-Ala)-(D-Ser)-D-C(3)-(1Nal)-(Chg)-(3Pya)-(2Nal)-N-C(3)-(aMe-P)-F-D-D-Lys(DOTA)-CONH2] (Ac-[dA][dS]DC[1Nal][Chg][3Pal][2Nal]NC[αMeP]FD[dK](DOTA)-NH2; disulfide 4-10), the Kd is 0.5 nM.

For orientation: Kd means the free concentration of one partner at which half of the binding sites on the other are occupied at equilibrium, for simple one-to-one binding.
